Results as given in PubChem BioAssay AID248 (DTP/NCI, 2004).
Several values for one entry are separate records, joined by “and”; a condition that tells them apart may be missing. Equal entries are not always repeated. Toxic doses and inconclusive results are not listed. No stated cut-off is given here; in the data, active means T/C of 150% or more; inactive means T/C below 125%.

Tested on: L1210 leukemia ip in BDF1 mice, survival T/C
Assay: NCI In Vivo Anticancer Drug Screen. Data for tumor model L1210 Leukemia (intraperitoneal) in B6D2F1 (BDF1) mice
Conditions: endpoint: mean survival time, higher = longer survival
Outline: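 Antitumor effect is assessed in tumor-bearing animals. Survival in the compound arm is compared with a vehicle-dosed control arm and expressed as their quotient.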

[1] = dose: 100.0 mg/kg/injection, schedule: Q04DX003 (ip), vehicle: saline with Tween-80
[2] = dose: 200.0 mg/kg/injection, schedule: Q04DX003 (ip), vehicle: saline with Tween-80
[3] = dose: 400.0 mg/kg/injection, schedule: Q04DX003 (ip), vehicle: saline with Tween-80
[4] = dose: 100.0 mg/kg/injection, schedule: Q01DX001 (ip), vehicle: saline
[5] = dose: 200.0 mg/kg/injection, schedule: Q01DX001 (ip), vehicle: saline
[6] = dose: 100.0 mg/kg/injection, schedule: Q01DX009 (ip), vehicle: Klucel (hydroxypropylcellulose) (HPC)
[7] = dose: 200.0 mg/kg/injection, schedule: Q01DX009 (ip), vehicle: Klucel (hydroxypropylcellulose) (HPC)
[8] = dose: 400.0 mg/kg/injection, schedule: Q01DX009 (ip), vehicle: Klucel (hydroxypropylcellulose) (HPC)
[9] = dose: 25.0 mg/kg/injection, schedule: Q01DX009 (ip), vehicle: saline
[10] = dose: 50.0 mg/kg/injection, schedule: Q01DX009 (ip), vehicle: saline
[11] = dose: 100.0 mg/kg/injection, schedule: Q01DX009 (ip), vehicle: saline
[12] = dose: 200.0 mg/kg/injection, schedule: Q01DX009 (ip), vehicle: saline
[13] = dose: 100.0 mg/kg/injection, schedule: Q04DX003 (ip), vehicle: saline
[14] = dose: 200.0 mg/kg/injection, schedule: Q04DX003 (ip), vehicle: saline
[15] = dose: 400.0 mg/kg/injection, schedule: Q04DX003 (ip), vehicle: saline
[16] = dose: 100.0 mg/kg/injection, schedule: Q04DX003 (ip), vehicle: Klucel (hydroxypropylcellulose) (HPC)
[17] = dose: 200.0 mg/kg/injection, schedule: Q04DX003 (ip), vehicle: Klucel (hydroxypropylcellulose) (HPC)
[18] = dose: 400.0 mg/kg/injection, schedule: Q04DX003 (ip), vehicle: Klucel (hydroxypropylcellulose) (HPC)

Measured: T/C

O=c1cc(/C=N/Nc2ccc([N+](=O)[O-])cc2[N+](=O)[O-])c2cccc3c2n1CCC3
inactive: dose: 100.0 mg/kg/injection, schedule: Q01DX009 (ip), vehicle: saline with Tween-80 93 % of control | [1] 98 % of control | [2] 101 % of control | dose: 400.0 mg/kg/injection, schedule: Q01DX009 (ip), vehicle: saline with Tween-80 93 % of control | [3] 102 % of control

COc1nccc2ccccc12
inactive: [1] 94 % of control | [2] 92 % of control

Cc1cc(=O)cc(C)[nH]1
inactive: [4] 90 % of control | [5] 94 % of control | dose: 400.0 mg/kg/injection, schedule: Q01DX001 (ip), vehicle: saline 92 % of control

Nc1cccc(CC(=O)c2ccccc2)n1
inactive: dose: 5.0 mg/kg/injection, schedule: Q01DX001 (ip), vehicle: saline 97 % of control | dose: 10.0 mg/kg/injection, schedule: Q01DX001 (ip), vehicle: saline 106 % of control | dose: 20.0 mg/kg/injection, schedule: Q01DX001 (ip), vehicle: saline 100 % of control | dose: 40.0 mg/kg/injection, schedule: Q01DX001 (ip), vehicle: saline 97 % of control | dose: 80.0 mg/kg/injection, schedule: Q01DX001 (ip), vehicle: saline 100 % of control | [5] 106 % of control

COc1ccc2c(c1)CCC1=C2CCC(C(=O)O)C1(C)C(=O)O (stereo unspecified)
inactive: dose: 100.0 mg/kg/injection, schedule: Q01DX001 (ip), vehicle: Klucel (hydroxypropylcellulose) (HPC) 97 % of control | dose: 200.0 mg/kg/injection, schedule: Q01DX001 (ip), vehicle: Klucel (hydroxypropylcellulose) (HPC) 108 % of control | dose: 400.0 mg/kg/injection, schedule: Q01DX001 (ip), vehicle: Klucel (hydroxypropylcellulose) (HPC) 92 % of control

COc1ccc(OC)c(NC(=O)c2ccc(Cl)cc2Cl)c1
inactive: [6] 95 % of control | [7] 93 % of control | [8] 95 % of control

CN(C(=O)NCCCl)C1CCCCC1
inactive: dose: 75.0 mg/kg/injection, schedule: Q01DX001 (ip), vehicle: carboxymethylcellulose (CMC) 106 % of control

CC1COCC(C)N1 (stereo unspecified)
inactive: [9] 101 % of control | [10] 93 % of control | [11] 90 % of control | [12] 90 % of control | dose: 400.0 mg/kg/injection, schedule: Q01DX009 (ip), vehicle: saline 92 % of control

NC(=O)c1ncn(C2OC(CO)C(O)C2O)c1N (stereo unspecified)
inactive: dose: 50.0 mg/kg/injection, schedule: Q01DX001 (ip), vehicle: saline 111 % of control | [4] 111 % of control | [5] 114 % of control

CC1=NC(C(=O)O)C(=O)O1 (stereo unspecified)
inactive: [11] 98 % of control | [13] 105 % of control | [12] 93 % of control | [14] 97 % of control | [15] 103 % of control

[Cl][Hg][CH2]C1COC([CH2][Hg][Cl])CO1 (stereo unspecified)
inactive: dose: 25.0 mg/kg/injection, schedule: Q01DX001 (ip), vehicle: carboxymethylcellulose (CMC) 90 % of control | dose: 50.0 mg/kg/injection, schedule: Q01DX001 (ip), vehicle: carboxymethylcellulose (CMC) 92 % of control | dose: 100.0 mg/kg/injection, schedule: Q01DX001 (ip), vehicle: carboxymethylcellulose (CMC) 95 % of control

NC(=S)N/N=C\c1c[nH]c2nccnc12
inactive: dose: 25.0 mg/kg/injection, schedule: Q01DX009 (ip), vehicle: water 108 % of control | dose: 50.0 mg/kg/injection, schedule: Q01DX009 (ip), vehicle: water 97 % of control | dose: 100.0 mg/kg/injection, schedule: Q01DX009 (ip), vehicle: water 102 % of control | dose: 200.0 mg/kg/injection, schedule: Q01DX009 (ip), vehicle: water 90 % of control | dose: 400.0 mg/kg/injection, schedule: Q01DX009 (ip), vehicle: water 88 % of control

BrC1C2C=CC(C2)C1Br (stereo unspecified)
inactive: [16] 102 % of control | [17] 100 % of control | [18] 92 % of control

O=C1c2ccccc2C(=O)N1c1c[nH]c(=O)[nH]c1=O
inactive: dose: 25.0 mg/kg/injection, schedule: Q04DX003 (ip), vehicle: Klucel (hydroxypropylcellulose) (HPC) 95 % of control | dose: 50.0 mg/kg/injection, schedule: Q04DX003 (ip), vehicle: Klucel (hydroxypropylcellulose) (HPC) 93 % of control

O=[N+]([O-])c1ccc(C#[C][Hg][C]#Cc2ccc([N+](=O)[O-])cc2)cc1
inactive: [13] 95 % of control | [14] 91 % of control | [15] 98 % of control

C=C1CC[N+]2(C)CCCC12 (stereo unspecified)
inactive: dose: 12.5 mg/kg/injection, schedule: Q01DX009 (ip), vehicle: saline 100 % of control | [9] 113 % of control | [10] 95 % of control and 91 % of control

O=C(CCCl)NC(Cc1ccccc1)c1ccccc1 (stereo unspecified)
inactive: [6] 102 % of control | [16] 96 % of control | [7] 92 % of control | [17] 98 % of control | [8] 92 % of control | [18] 95 % of control

CC[NH-].CC[NH-].[Br][Pt+2][Br]
inactive: dose: 100.0 mg/kg/injection, schedule: Q04DX003 (ip), vehicle: other 122 % of control | dose: 200.0 mg/kg/injection, schedule: Q04DX003 (ip), vehicle: other 105 % of control

CC1=CC(=O)C=CC1(C)C(Cl)Cl (stereo unspecified)
inactive: [1] 107 % of control | [2] 100 % of control | [3] 97 % of control

CCCCCCCCCCCCC/C=C/CC(CC(=O)O)C(=O)Nc1cccc2c[n+](CC(=O)c3ccc(NC(C)=O)cc3)ccc12 (stereo unspecified)
inactive: [16] 111 % of control | [17] 101 % of control | [18] 105 % of control

CCN(c1ccccc1)P(I)(c1ccccc1)(c1ccccc1)c1ccccc1
inactive: dose: 1.17 mg/kg/injection, schedule: Q01DX001 (ip), vehicle: other 107 % of control | dose: 2.34 mg/kg/injection, schedule: Q01DX001 (ip), vehicle: other 114 % of control | dose: 4.69 mg/kg/injection, schedule: Q01DX001 (ip), vehicle: other 107 % of control

O=C1/C(=C\c2cccc3ccccc23)N2CCC1CC2
inactive: dose: 100.0 mg/kg/injection, schedule: Q04DX002 (ip), vehicle: Klucel (hydroxypropylcellulose) (HPC) 100 % of control | dose: 200.0 mg/kg/injection, schedule: Q04DX002 (ip), vehicle: Klucel (hydroxypropylcellulose) (HPC) 96 % of control | dose: 400.0 mg/kg/injection, schedule: Q04DX002 (ip), vehicle: Klucel (hydroxypropylcellulose) (HPC) 104 % of control

CCCCCCCCCCCCCCCC1CCCC(C)N1 (stereo unspecified)
inactive: dose: 6.25 mg/kg/injection, schedule: Q04DX002 (ip), vehicle: saline with Tween-80 104 % of control | dose: 12.5 mg/kg/injection, schedule: Q04DX002 (ip), vehicle: saline with Tween-80 96 % of control | dose: 25.0 mg/kg/injection, schedule: Q04DX002 (ip), vehicle: saline with Tween-80 100 % of control

OC1CCC(O)C2CCC1S2 (stereo unspecified)
inactive: dose: 100.0 mg/kg/injection, schedule: Q01DX001 (ip), vehicle: steriod suspending solution 87 % of control | dose: 200.0 mg/kg/injection, schedule: Q01DX001 (ip), vehicle: steriod suspending solution 92 % of control | dose: 400.0 mg/kg/injection, schedule: Q01DX001 (ip), vehicle: steriod suspending solution 103 % of control
